Assay results taken from publication PMC11822212, “High-throughput screening identifies Aurora kinase B as a critical therapeutic target for Merkel cell carcinoma” (Nature Communications, 2025).
Where two headings read alike, the source gives them in different places.

Legend:
Assay in all cases: qHTS cell viability (CellTiter-Glo, 72 h; primary and follow-up small molecule screen)
Assay type in all cases: cell-based, human
[1] = test system: MKL-2 cells (VP-MCC)
[2] = test system: UISO cells (VN-MCC)
[3] = test system: MKL-1 cells (VP-MCC)
[4] = test system: MCC13 cells (VN-MCC)
[5] = test system: MCC26 cells (VN-MCC)
[6] = test system: WAGA cells (VP-MCC)
[7] = follow-up screen, MKL-2, replicate 1
[8] = follow-up screen, MKL-2, replicate 2
[9] = follow-up screen, MKL-2, replicate 3
[10] = follow-up screen, UISO, replicate 1
[11] = follow-up screen, UISO, replicate 2
[12] = follow-up screen, UISO, replicate 3
[13] = follow-up screen, MKL-1, replicate 1
[14] = follow-up screen, MKL-1, replicate 2
[15] = follow-up screen, MKL-1, replicate 3
[16] = follow-up screen, MCC13, replicate 1
[17] = follow-up screen, MCC13, replicate 2
[18] = follow-up screen, MCC13, replicate 3
[19] = follow-up screen, MCC26, replicate 1
[20] = follow-up screen, MCC26, replicate 2
[21] = follow-up screen, MCC26, replicate 3
[22] = follow-up screen, WAGA, replicate 1
[23] = follow-up screen, WAGA, replicate 2
[24] = follow-up screen, WAGA, replicate 3

| SMILES | Area under the dose-response curve (AUC) MKL-2 Replicate 1 [1] | Area under the dose-response curve (AUC) MKL-2 Replicate 2 [1] | Area under the dose-response curve (AUC) MKL-2 Replicate 3 [1] | Area under the dose-response curve (AUC) UISO Replicate 1 [2] | Area under the dose-response curve (AUC) UISO Replicate 2 [2] | Area under the dose-response curve (AUC) UISO Replicate 3 [2] | Area under the dose-response curve (AUC) MKL-1 Replicate 1 [3] | Area under the dose-response curve (AUC) MKL-1 Replicate 2 [3] | Area under the dose-response curve (AUC) MKL-1 Replicate 3 [3] | Area under the dose-response curve (AUC) MCC13 Replicate 1 [4] | Area under the dose-response curve (AUC) MCC13 Replicate 2 [4] | Area under the dose-response curve (AUC) MCC13 Replicate 3 [4] | Area under the dose-response curve (AUC) MCC26 Replicate 1 [5] | Area under the dose-response curve (AUC) MCC26 Replicate 2 [5] | Area under the dose-response curve (AUC) MCC26 Replicate 3 [5] | Area under the dose-response curve (AUC) WAGA Replicate 1 [6] | Area under the dose-response curve (AUC) WAGA Replicate 2 [6] | Area under the dose-response curve (AUC) WAGA Replicate 3 [6] | Area under the dose-response curve (AUC) MKL-2 Replicate 1 [1, 7] | Area under the dose-response curve (AUC) MKL-2 Replicate 2 [1, 8] | also measured |
| --- | --- | --- | --- | --- | --- | --- | --- | --- | --- | --- | --- | --- | --- | --- | --- | --- | --- | --- | --- | --- | --- |
| COc1cccc2c1C(=O)c1c(O)c3c(c(O)c1C2=O)C[C@@](O)(C(C)=O)C[C@@H]3O[C@H]1C[C@H](N)[C@H](O)[C@H](C)O1 [Daunorubicin] | 202.9 | 215.3 | 253.2 | 226.5 | 238.3 | 225.1 | 228.6 | 217.7 | 240.0 | 326.2 | 316.0 | 313.0 | 309.1 | 298.6 | 273.9 | 254.8 | 263.7 | 266.2 |  |  |  |
| Nc1ccc(C(=O)Nc2ccccc2N)cc1 [Dianiline] |  |  |  |  |  |  |  |  |  |  |  |  |  |  |  |  |  |  | 329.9 | 373.4 | Area under the dose-response curve (AUC) MKL-2 Replicate 3 [1, 9]: 408.4; Area under the dose-response curve (AUC) UISO Replicate 1 [2, 10]: 377.0; Area under the dose-response curve (AUC) UISO Replicate 2 [2, 11]: 432.3; Area under the dose-response curve (AUC) UISO Replicate 3 [2, 12]: 415.8; Area under the dose-response curve (AUC) MKL-1 Replicate 1 [3, 13]: 338.4; Area under the dose-response curve (AUC) MKL-1 Replicate 2 [3, 14]: 393.7; Area under the dose-response curve (AUC) MKL-1 Replicate 3 [3, 15]: 398.6; Area under the dose-response curve (AUC) MCC13 Replicate 1 [4, 16]: 470.9; Area under the dose-response curve (AUC) MCC13 Replicate 2 [4, 17]: 476.2; Area under the dose-response curve (AUC) MCC13 Replicate 3 [4, 18]: 459.3; Area under the dose-response curve (AUC) MCC26 Replicate 1 [5, 19]: 384.0; Area under the dose-response curve (AUC) MCC26 Replicate 2 [5, 20]: 438.4; Area under the dose-response curve (AUC) MCC26 Replicate 3 [5, 21]: 461.6; Area under the dose-response curve (AUC) WAGA Replicate 1 [6, 22]: 404.2; Area under the dose-response curve (AUC) WAGA Replicate 2 [6, 23]: 318.5; Area under the dose-response curve (AUC) WAGA Replicate 3 [6, 24]: 364.2 |
| C[C@H]1O[C@@H](O[C@H]2[C@@H](O)C[C@H](O[C@H]3[C@@H](O)C[C@H](O[C@H]4CC[C@@]5(C)[C@H](CC[C@@H]6[C@@H]5CC[C@]5(C)[C@@H](C7=CC(=O)OC7)CC[C@]65O)C4)O[C@@H]3C)O[C@@H]2C)C[C@H](O)[C@@H]1O [Digitoxin] | 287.6 | 297.9 | 317.5 | 201.4 | 226.6 | 210.4 | 269.2 | 287.7 | 299.6 | 232.3 | 249.2 | 235.6 | 279.4 | 294.5 | 239.6 | 276.0 | 299.5 | 286.7 |  |  |  |
| [O-][n+]1ccccc1SSc1cccc[n+]1[O-] [Dipyrithione] |  |  |  |  |  |  |  |  |  |  |  |  |  |  |  |  |  |  | 287.6 | 277.7 | Area under the dose-response curve (AUC) MKL-2 Replicate 3 [1, 9]: 248.6; Area under the dose-response curve (AUC) UISO Replicate 1 [2, 10]: 241.8; Area under the dose-response curve (AUC) UISO Replicate 2 [2, 11]: 283.0; Area under the dose-response curve (AUC) UISO Replicate 3 [2, 12]: 225.1; Area under the dose-response curve (AUC) MKL-1 Replicate 1 [3, 13]: 254.8; Area under the dose-response curve (AUC) MKL-1 Replicate 2 [3, 14]: 246.8; Area under the dose-response curve (AUC) MKL-1 Replicate 3 [3, 15]: 245.5; Area under the dose-response curve (AUC) MCC13 Replicate 1 [4, 16]: 333.5; Area under the dose-response curve (AUC) MCC13 Replicate 2 [4, 17]: 320.8; Area under the dose-response curve (AUC) MCC13 Replicate 3 [4, 18]: 288.3; Area under the dose-response curve (AUC) MCC26 Replicate 1 [5, 19]: 305.7; Area under the dose-response curve (AUC) MCC26 Replicate 2 [5, 20]: 302.8; Area under the dose-response curve (AUC) MCC26 Replicate 3 [5, 21]: 280.4; Area under the dose-response curve (AUC) WAGA Replicate 1 [6, 22]: 319.9; Area under the dose-response curve (AUC) WAGA Replicate 2 [6, 23]: 346.1; Area under the dose-response curve (AUC) WAGA Replicate 3 [6, 24]: 356.9 |
| CCN(CC)C(=S)SSC(=S)N(CC)CC [Disulfiram] |  |  |  |  |  |  |  |  |  |  |  |  |  |  |  |  |  |  | 243.8 | 235.0 | Area under the dose-response curve (AUC) MKL-2 Replicate 3 [1, 9]: 298.1; Area under the dose-response curve (AUC) UISO Replicate 1 [2, 10]: 247.9; Area under the dose-response curve (AUC) UISO Replicate 2 [2, 11]: 258.4; Area under the dose-response curve (AUC) UISO Replicate 3 [2, 12]: 254.5; Area under the dose-response curve (AUC) MKL-1 Replicate 1 [3, 13]: 287.1; Area under the dose-response curve (AUC) MKL-1 Replicate 2 [3, 14]: 274.6; Area under the dose-response curve (AUC) MKL-1 Replicate 3 [3, 15]: 256.7; Area under the dose-response curve (AUC) MCC13 Replicate 1 [4, 16]: 436.7; Area under the dose-response curve (AUC) MCC13 Replicate 2 [4, 17]: 415.1; Area under the dose-response curve (AUC) MCC13 Replicate 3 [4, 18]: 342.5; Area under the dose-response curve (AUC) MCC26 Replicate 1 [5, 19]: 398.0; Area under the dose-response curve (AUC) MCC26 Replicate 2 [5, 20]: 401.3; Area under the dose-response curve (AUC) MCC26 Replicate 3 [5, 21]: 322.7; Area under the dose-response curve (AUC) WAGA Replicate 1 [6, 22]: 389.6; Area under the dose-response curve (AUC) WAGA Replicate 2 [6, 23]: 433.6; Area under the dose-response curve (AUC) WAGA Replicate 3 [6, 24]: 454.9 |
| CS[C@H]1SC[C@H]2C(=O)N(C)[C@@H](C(C)C)C(=O)OC[C@@H](NC(=O)c3cnc4ccccc4n3)C(=O)N[C@@H](C)C(=O)N(C)[C@@H]1C(=O)N(C)[C@@H](C(C)C)C(=O)OC[C@@H](NC(=O)c1cnc3ccccc3n1)C(=O)N[C@@H](C)C(=O)N2C [Echinomycin] | 166.1 | 154.0 | 225.2 | 140.9 | 135.8 | 136.4 | 235.9 | 188.8 | 250.5 | 310.2 | 265.0 | 244.8 | 267.2 | 264.2 | 215.9 | 225.7 | 172.6 | 225.4 |  |  |  |
| CC[C@H]1CN2CCc3cc(OC)c(OC)cc3[C@@H]2C[C@@H]1C[C@H]1NCCc2cc(OC)c(OC)cc21 [Emetine] |  |  |  |  |  |  |  |  |  |  |  |  |  |  |  |  |  |  | 297.3 | 300.1 | Area under the dose-response curve (AUC) MKL-2 Replicate 3 [1, 9]: 296.5; Area under the dose-response curve (AUC) UISO Replicate 1 [2, 10]: 267.1; Area under the dose-response curve (AUC) UISO Replicate 2 [2, 11]: 258.2; Area under the dose-response curve (AUC) UISO Replicate 3 [2, 12]: 246.0; Area under the dose-response curve (AUC) MKL-1 Replicate 1 [3, 13]: 316.9; Area under the dose-response curve (AUC) MKL-1 Replicate 2 [3, 14]: 311.7; Area under the dose-response curve (AUC) MKL-1 Replicate 3 [3, 15]: 312.3; Area under the dose-response curve (AUC) MCC13 Replicate 1 [4, 16]: 319.8; Area under the dose-response curve (AUC) MCC13 Replicate 2 [4, 17]: 335.5; Area under the dose-response curve (AUC) MCC13 Replicate 3 [4, 18]: 310.8; Area under the dose-response curve (AUC) MCC26 Replicate 1 [5, 19]: 331.2; Area under the dose-response curve (AUC) MCC26 Replicate 2 [5, 20]: 367.3; Area under the dose-response curve (AUC) MCC26 Replicate 3 [5, 21]: 295.0; Area under the dose-response curve (AUC) WAGA Replicate 1 [6, 22]: 343.0; Area under the dose-response curve (AUC) WAGA Replicate 2 [6, 23]: 356.1; Area under the dose-response curve (AUC) WAGA Replicate 3 [6, 24]: 341.6 |
| CC[n+]1c(-c2ccccc2)c2cc(N)ccc2c2ccc(N)cc21 [Ethidium bromide] | 300.3 | 311.5 | 284.3 | 333.5 | 324.2 | 301.4 | 280.1 | 244.2 | 288.2 | 459.3 | 449.7 | 444.5 | 428.7 | 414.7 | 412.7 | 318.2 | 323.3 | 317.1 |  |  |  |
